Measured values as given in PubChem BioAssay AID1117265 (The Scripps Research Institute Molecular Screening Center, 2014).
The source made the active and inactive calls. No rule for the calls is given here.

Target: Trace amine-associated receptor 1 (Homo sapiens) (UniProt Q96RJ0)
Assay: human TAAR1 antagonists, late-stage follow-up, cell-based, fluorescence, MedChem round 2 (AID 1117265)
Conditions: TAAR1-expressing cells, antagonist mode

Sequence of Trace amine-associated receptor 1 (Homo sapiens) (Q96RJ0 whole entry, looked up): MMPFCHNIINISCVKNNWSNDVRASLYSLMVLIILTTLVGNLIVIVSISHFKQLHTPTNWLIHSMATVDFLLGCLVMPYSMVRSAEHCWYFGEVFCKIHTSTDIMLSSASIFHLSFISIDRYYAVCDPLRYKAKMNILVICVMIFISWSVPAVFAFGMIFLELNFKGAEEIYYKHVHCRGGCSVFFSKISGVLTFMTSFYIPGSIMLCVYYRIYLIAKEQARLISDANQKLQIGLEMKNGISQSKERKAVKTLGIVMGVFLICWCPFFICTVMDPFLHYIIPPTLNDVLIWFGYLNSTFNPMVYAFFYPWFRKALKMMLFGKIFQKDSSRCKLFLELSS

Row | SMILES | IC50
1 | CC(CN1CCCC1Cc1ccccc1)C(=O)c1ccc2c(c1)OCCO2 (configuration not stated) | 2960 nM
2 | O=C(CCN1CCC(c2ccccc2)C1)c1ccccc1 (configuration not stated) | 765 nM
3 | N#Cc1c(C(F)(F)F)cc(-c2ccc(Cl)cc2)nc1SCC(=O)N1CCCCCC1 | > 29900 nM (inactive)
4 | N#Cc1c(C(F)(F)F)cc(-c2ccc(Cl)cc2)nc1SCC(=O)N1CCCC1 | 1070 nM

More lines, now with the values ahead:

Row | IC50 | SMILES
5 | 3.74 nM | N#Cc1c(C(F)(F)F)cc(-c2ccc(Cl)cc2)nc1SCC(=O)Nc1ncccn1
6 | 672 nM | Cc1ccc(C(=O)CCN2CCC(c3ccccc3)C2)cc1 (configuration not stated)
7 | 419 nM | COc1cc(C(=O)CCN2CCC(c3ccccc3)C2)cc(OC)c1OC (configuration not stated)
